One assay deals with D3R (Homo sapiens, UniProt P35462). Briefly: BRET1-based GoA activation assay, D3R. Format: cell-based. The note with it: for efficacy type at D3R (in words): GoA BRET; for efficacy type at D3R (in words) / Emax in the Go BRET assay, D3R: HEK293T; for Emax in the Go BRET assay, D3R: dose-response 100 pM to 100 µM. A general note: BRET reads energy transfer from a luciferase to a nearby fluorophore.

Another assay concerns the target D2R (Homo sapiens, UniProt P14416). The assay can be described thus: BRET1-based GoA activation assay, D2R. The assay is classed as cell-based.
Where [1] appears, read: HEK293T, dose-response 100 pM to 100 µM.

Entries after “also recorded” stand apart in the source; their conditions may differ. Read-outs that look alike come from different tables or passages of the source.

Chain of D2R (P14416 1-414 isoform P14416-2): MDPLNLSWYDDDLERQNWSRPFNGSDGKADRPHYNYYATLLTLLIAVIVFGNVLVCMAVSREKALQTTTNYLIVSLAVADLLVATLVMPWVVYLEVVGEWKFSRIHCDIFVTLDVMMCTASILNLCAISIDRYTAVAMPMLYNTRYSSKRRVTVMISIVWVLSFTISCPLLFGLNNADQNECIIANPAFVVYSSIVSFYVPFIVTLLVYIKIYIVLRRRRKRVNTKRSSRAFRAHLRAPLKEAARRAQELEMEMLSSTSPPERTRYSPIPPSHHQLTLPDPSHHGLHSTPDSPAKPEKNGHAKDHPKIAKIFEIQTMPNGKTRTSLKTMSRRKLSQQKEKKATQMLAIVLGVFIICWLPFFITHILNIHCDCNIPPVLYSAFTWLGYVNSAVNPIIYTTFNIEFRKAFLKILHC
Chain of D3R (P35462 whole entry): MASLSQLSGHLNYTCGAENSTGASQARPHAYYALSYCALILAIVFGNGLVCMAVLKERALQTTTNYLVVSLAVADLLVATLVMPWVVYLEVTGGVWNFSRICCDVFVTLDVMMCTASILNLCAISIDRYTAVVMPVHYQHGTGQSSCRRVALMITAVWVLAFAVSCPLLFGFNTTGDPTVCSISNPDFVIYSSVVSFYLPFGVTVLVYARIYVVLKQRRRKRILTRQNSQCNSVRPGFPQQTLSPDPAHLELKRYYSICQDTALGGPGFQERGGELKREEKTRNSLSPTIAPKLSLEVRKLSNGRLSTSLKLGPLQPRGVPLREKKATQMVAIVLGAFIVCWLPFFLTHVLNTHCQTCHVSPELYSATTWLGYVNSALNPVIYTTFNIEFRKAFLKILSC

Consider `O=C(NCC[C@@H](O)CN1CCN(c2cccc(Cl)c2Cl)CC1)c1cc2ccccc2[nH]1` [Compound 2], for which the “efficacy type at D3R (in words)” value on D3R is reported as “weak partial agonism”.

Take `COc1ccccc1N1CCN(CCCCNC(=O)c2cc3ccccc3[nH]2)CC1` [Compound 5]: at D3R, the “efficacy type at D3R (in words)” value was “weak partial agonism” and the “Emax in the Go BRET assay, D3R” value is 8.38 % of the Emax of dopamine. In addition, the “efficacy type at D2R (in words)” value at D2R (GoA BRET, HEK293T) is given as “weak partial agonism”. Further, the “Emax in the Go BRET assay, D2R” value at D2R (setting [1]) was 13.65 % of the Emax of dopamine.

In the case of `CCc1cc(Cl)c(OC)c(C(=O)NC[C@@H]2CCCN2CC)c1O` [Compound 3, eticlopride, reference compound], the “efficacy type at D3R (in words)” value on D3R is recorded as “inverse agonist”.

`CCCCN1CCN(c2ccccc2OC)CC1` [Compound 15, 1-Butyl-4-(2-methoxyphenyl)piperazine]: the “Emax in the Go BRET assay, D3R” value on D3R is reported as 9.40 % of the Emax of dopamine.

As for `O=C(NCCCCN1CCN(c2cccc(Cl)c2Cl)CC1)c1cc2ccccc2[nH]1` [Compound 4, N-(4-(4-(2,3-dichlorophenyl)piperazin-1-yl)butyl)-1H-indole-2-carboxamide], on D3R, the “efficacy type at D3R (in words)” value was “weak partial agonism” and the “Emax in the Go BRET assay, D3R” value is on record as 16.00 % of the Emax of dopamine. Besides, the “efficacy type at D2R (in words)” value on D2R (GoA BRET, HEK293T) is given as “weak partial agonism”.

Turning to `CCCN1CCN(c2cccc(Cl)c2Cl)CC1` [Compound 13, 1-(2,3-Dichlorophenyl)-4-propylpiperazine], the “Emax in the Go BRET assay, D3R” value on D3R is recorded as 17.53 % of the Emax of dopamine.

As to `OCCN1CCN(c2cccc(Cl)c2Cl)CC1` [Compound 12, 2-(4-(2,3-Dichlorophenyl)piperazin-1-yl)ethanol], on D3R, the “Emax in the Go BRET assay, D3R” value is 21.08 % of the Emax of dopamine.

As to `NCCc1ccc(O)c(O)c1` [dopamine, reference compound], at D2R, the “efficacy type at D2R (in words)” value is given as “full agonists”.

As for `CCCCN1CCN(c2cccc(Cl)c2Cl)CC1` [Compound 14, 1-Butyl-4-(2,3-dichlorophenyl)piperazine], the “Emax in the Go BRET assay, D3R” value at D3R is 14.13 % of the Emax of dopamine.

On to `CN1CCN(c2cccc(Cl)c2Cl)CC1` [Compound 10, 1-(2,3-Dichlorophenyl)-4-methylpiperazine], for which the “Emax in the Go BRET assay, D3R” value at D3R is 37.53 % of the Emax of dopamine.

On to `CCN1CCCC1CNC(=O)c1cc(S(N)(=O)=O)ccc1OC` (stereo not shown) [Compound 7, sulpiride, reference compound], for which, on D3R, the “efficacy type at D3R (in words)” value is reported as “inverse agonist” and the “Emax in the Go BRET assay, D3R” value was −6.83 % of the Emax of dopamine. The “shift of dopamine dose-response curve at D3R” value at D3R (sulpiride 100 nM) was “dramatically right-shifted the potency of dopamine”. For the same compound, on D2R (GoA BRET, HEK293T), the “efficacy type at D2R (in words)” value was “inverse agonist”. Besides, the “Emax in the Go BRET assay, D2R” value at D2R (setting [1]) was −6.26 % of the Emax of dopamine. Further, at D2R (sulpiride 100 nM), the “shift of dopamine dose-response curve at D2R” value is recorded as “dramatically right-shifted the potency of dopamine”.

Regarding `COc1ccccc1N1CCN(C)CC1` [Compound 11, 1-(2-Methoxyphenyl)-4-methylpiperazine], on D3R, the “Emax in the Go BRET assay, D3R” value is on record as 7.11 % of the Emax of dopamine.

For `CCC(=O)NCCCCN1CCN(c2cccc(Cl)c2Cl)CC1` [Compound 16], at D3R, the “Emax in the Go BRET assay, D3R” value was 22.32 % of the Emax of dopamine.

For the compound `Clc1cccc(N2CCNCC2)c1Cl` [Compound 8, 2,3-diCl-4-phenylpiperazine], at D3R, the “efficacy type at D3R (in words)” value is reported as “substantial partial agonism” and the “Emax in the Go BRET assay, D3R” value is 57.27 % of the Emax of dopamine. Further, at D2R (GoA BRET, HEK293T), the “efficacy type at D2R (in words)” value is listed as “substantial partial agonism”. The “Emax in the Go BRET assay, D2R” value on D2R (setting [1]) is on record as 40.03 % of the Emax of dopamine.

On to `CCCCNC(=O)c1cc2ccccc2[nH]1` [Compound 18, N-Butyl-1H-indole-2-carboxamide], for which, on D3R, the “efficacy type at D3R (in words)” value was “no activity; also recorded: failed to activate” and the “Emax in the Go BRET assay, D3R” value was −0.65 % of the Emax of dopamine.

With `COc1ccccc1N1CCNCC1` [Compound 9, 2-OCH3-4-phenylpiperazine], on D3R, the “efficacy type at D3R (in words)” value is “only minimal efficacy” and the “Emax in the Go BRET assay, D3R” value is recorded as 6.27 % of the Emax of dopamine. For the same compound, at D2R, the “Emax in the Go BRET assay, D2R” value was 14.02 % of the Emax of dopamine and the “efficacy type at D2R (in words)” value is “only minimal efficacy”.

For the compound `CCC(=O)NCCCCN1CCN(c2ccccc2OC)CC1` [Compound 17], the “Emax in the Go BRET assay, D3R” value at D3R was 7.37 % of the Emax of dopamine.

The values above are taken from paper PMC3415572 (Journal of medicinal chemistry, 2012).
